The source made the active and inactive calls. The calls are words filed in the database; no cut-off is given here.
Key:
[1] = Increase in intracellular ROS level in Staphylococcus aureus ATCC 25923 at 4XMIC measured after 10 mins by DCFH-DA staining based fluorescence analysis relative to control; assay type: functional
Staphylococcus aureus [2] = experiment: Antibacterial activity against methicillin-resistant Staphylococcus aureus ATCC 43300 infected in BALB/c mouse assessed as reduction of histopathological changes of pulmonary tissue at 4 mg/kg, iv administered at 1, 6, 25 and 30 hrs post-infection and measured on day 7 post-infection by hematoxylin-eosin staining based analysis; assay type: functional, organism-based; details: time 7.0 day
[3] = Subacute toxicity in BALB/c mouse assessed as animals abnormal behaviour at 4 to 8 mg/kg, iv administered everyday for 7 days; assay type: organism-based; details: in vivo, 168 h, dose 4-8 mg/kg, time 7 day
[4] = Half-life in Sprague-Dawley rat at 8 mg/kg, iv by LC-MS analysis; assay type: ADME, organism-based; details: in vivo
[5] = AUC (0 to infinity) in Sprague-Dawley rat at 8 mg/kg, iv by LC-MS analysis; assay type: ADME, organism-based; design: time infinity, dose 8 mg/kg, route iv; details: in vivo
Staphylococcus aureus [6] = experiment: Inhibition of biofilm formation in methicillin-resistant Staphylococcus aureus ATCC 43300 at MIC incubated for 24 hrs under stationary conditions by crystal violet staining based analysis; assay type: functional
[7] = Subacute toxicity in BALB/c mouse assessed as histopathological changes of spleen at 4 to 8 mg/kg, iv administered for 7 days and measured on day 14 by hematoxyin-eosin staining based analysis; assay type: organism-based; details: in vivo, 336 h, dose 4-8 mg/kg, time 14 day
[8] = Acute toxicity in BALB/c mouse assessed as ruffled fur at >12 mg/kg, iv; assay type: organism-based; details: in vivo
[9] = Subacute toxicity in BALB/c mouse assessed as histopathological changes of liver at 4 to 8 mg/kg, iv administered for 7 days and measured on day 14 by hematoxyin-eosin staining based analysis; assay type: organism-based; details: in vivo, 336 h, dose 4-8 mg/kg, time 14 day
Staphylococcus aureus [10] = experiment: Antibacterial activity against methicillin-resistant Staphylococcus aureus ATCC 43300 infected in BALB/c mouse assessed as reduction in bacterial burden in lungs at 4 mg/kg, iv administered at 1, 6, 25 and 30 hrs post-infection and measured on day 7 post-infection by colony forming unit assay; assay type: functional, organism-based; details: time 7.0 day
[11] = Cmax in Sprague-Dawley rat at 8 mg/kg, iv by LC-MS analysis; assay type: ADME, organism-based; design: dose 8 mg/kg, route iv; details: in vivo
[12] = Subacute toxicity in BALB/c mouse assessed as histopathological changes of heart at 4 to 8 mg/kg, iv administered for 7 days and measured on day 14 by hematoxyin-eosin staining based analysis; assay type: organism-based; details: in vivo, 336 h, dose 4-8 mg/kg, time 14 day
[13] = Subacute toxicity in BALB/c mouse assessed as animal's death at 4 to 8 mg/kg, iv administered everyday for 7 days; assay type: organism-based; details: in vivo, 168 h, dose 4-8 mg/kg, time 7 day
[14] = MRT (0 to infinity) in Sprague-Dawley rat at 8 mg/kg, iv by LC-MS analysis; assay type: ADME, organism-based; details: in vivo
Staphylococcus aureus [15] = experiment: Inhibition of biofilm formation in methicillin-resistant Staphylococcus aureus ATCC 43300 incubated for 24 hrs under stationary conditions by crystal violet staining based analysis; assay type: functional, organism-based
[16] = Acute toxicity in BALB/c mouse assessed as anorexia at >12 mg/kg, iv; assay type: organism-based; details: in vivo
[17] = Selectivity ratio of HC5 for hemolytic activity in rabbit erythrocytes to MIC for antibacterial activity against methicillin-resistant Staphylococcus aureus ATCC 43300; assay type: toxicity, cell-based
Staphylococcus aureus [18] = experiment: Antibacterial activity against Staphylococcus aureus ATCC 25923 assessed as inhibition of bacterial growth incubated for 16 to 18 hrs in presence of ROS scavenger, NAC by broth microdilution method; assay type: functional; details: time 16-18 hrs
Staphylococcus aureus [19] = experiment: Antibacterial activity against methicillin-resistant Staphylococcus aureus ATCC 43300 infected in BALB/c mouse assessed as reduction of NF-kappaB p65 expression in lungs at 4 mg/kg, iv administered at 1, 6, 25 and 30 hrs post-infection and measured on day 7 post-infection by western blot analysis; assay type: functional, organism-based; details: time 7.0 day
[20] = Mean clearance rate, Clz in Sprague-Dawley rat at 8 mg/kg, iv by LC-MS analysis; assay type: ADME, organism-based; details: in vivo
Staphylococcus aureus [21] = experiment: Antibacterial activity against methicillin-resistant Staphylococcus aureus ATCC 43300 infected in BALB/c mouse assessed as reduction in MPO content in lungs at 4 mg/kg, iv administered at 1, 6, 25 and 30 hrs post-infection and measured on day 7 post-infection by ELISA; assay type: functional, organism-based; details: time 7.0 day
[22] = Acute toxicity in BALB/c mouse assessed as animal's death at >12 mg/kg, iv; assay type: organism-based; details: in vivo
[23] = Subacute toxicity in BALB/c mouse assessed as histopathological changes of lungs at 4 to 8 mg/kg, iv administered for 7 days and measured on day 14 by hematoxyin-eosin staining based analysis; assay type: organism-based; details: in vivo, 336 h, dose 4-8 mg/kg, time 14 day
Staphylococcus aureus [24] = experiment: Antibacterial activity against Staphylococcus aureus ATCC 25923 assessed as inhibition of bacterial growth incubated for 16 to 18 hrs by broth microdilution method; assay type: functional; details: time 16-18 hrs
Pseudomonas aeruginosa = experiment: Antibacterial activity against Pseudomonas aeruginosa ATCC 27853 assessed as inhibition of bacterial growth incubated for 16 to 18 hrs by broth microdilution method; assay type: functional; details: time 16-18 hrs
[25] = Cytotoxicity against human HEK293 cells assessed as reduction of cell viability incubated for 48 hrs by MTT assay; assay type: toxicity, cell-based
Escherichia coli [26] = experiment: Antibacterial activity against Escherichia coli ATCC 25922 assessed as inhibition of bacterial growth incubated for 16 to 18 hrs by broth microdilution method; assay type: functional; details: time 16-18 hrs
Escherichia coli [27] = experiment: Bactericidal activity against Escherichia coli ATCC 25922 assessed as eradication of bacterial colonies at 16XMIC measured after 30 mins time-kill kinetics analysis; assay type: functional, organism-based
[28] = Tmax in Sprague-Dawley rat at 8 mg/kg, iv by LC-MS analysis; assay type: ADME, organism-based; details: in vivo
Staphylococcus aureus [29] = experiment: Disruption of established biofilm in methicillin-resistant Staphylococcus aureus ATCC 43300 assessed as reduction of relative biofilm mass incubated for 24 hrs by crystal violet staining based analysis; assay type: functional, organism-based; details: DDE = dose-dependent effect
Acinetobacter baumannii = experiment: Antibacterial activity against Acinetobacter baumannii ATCC 19606 assessed as inhibition of bacterial growth incubated for 16 to 18 hrs by broth microdilution method; assay type: functional; details: time 16-18 hrs
Escherichia coli [30] = experiment: Antibacterial activity against Escherichia coli ATCC 25922 assessed as inhibition of bacterial growth incubated for 16 to 18 hrs in presence of ROS scavenger, NAC by broth microdilution method; assay type: functional; details: time 16-18 hrs
Staphylococcus aureus [31] = experiment: Antibacterial activity against methicillin-resistant Staphylococcus aureus ATCC 43300 assessed as inhibition of bacterial growth measured after 10 passages by broth microdilution method; assay type: functional, organism-based
[32] = Acute toxicity in BALB/c mouse assessed as clonic convulsion at >12 mg/kg, iv; assay type: organism-based; details: in vivo
Staphylococcus aureus [33] = experiment: Antibacterial activity against methicillin-resistant Staphylococcus aureus ATCC 43300 infected in BALB/c mouse assessed as increase in animal's survival rate at 4 mg/kg, iv administered at 1, 6, 25 and 30 hrs post-infection and measured for 7 day post-infection; assay type: functional, organism-based
Staphylococcus aureus [34] = experiment: Bactericidal activity against Staphylococcus aureus ATCC 25923 assessed as eradication of bacterial colonies at 4XMIC measured after 15 mins by time-kill kinetics analysis; assay type: functional, organism-based
Enterococcus faecalis = experiment: Antibacterial activity against Enterococcus faecalis ATCC 29212 assessed as inhibition of bacterial growth incubated for 16 to 18 hrs by broth microdilution method; assay type: functional; details: time 16-18 hrs
Staphylococcus aureus [35] = experiment: Antibacterial activity against methicillin-resistant Staphylococcus aureus ATCC 43300 infected in BALB/c mouse assessed as increase in IL-10 content in lungs at 4 mg/kg, iv administered at 1, 6, 25 and 30 hrs post-infection and measured on day 7 post-infection by ELISA; assay type: functional, organism-based; details: time 7.0 day
Staphylococcus aureus [36] = experiment: Disruption of established biofilm in methicillin-resistant Staphylococcus aureus ATCC 43300 assessed as reduction of relative biofilm mass at 64XMIC incubated for 24 hrs by crystal violet staining based analysis; assay type: functional
Erythrocyte = experiment: Hemolytic activity in rabbit erythrocytes incubated for 1 hr; assay type: toxicity, cell-based, Oryctolagus cuniculus
Staphylococcus aureus [37] = experiment: Antibacterial activity against methicillin-resistant Staphylococcus aureus ATCC 43300 infected in BALB/c mouse assessed as reduction in TNF-alpha content in lungs at 4 mg/kg, iv administered at 1, 6, 25 and 30 hrs post-infection and measured on day 7 post-infection by ELISA; assay type: functional, organism-based; details: time 7.0 day
[38] = Increase in intracellular ROS level in Escherichia coli ATCC 25922 at 4XMIC measured after 10 mins by DCFH-DA staining based fluorescence analysis relative to control; assay type: functional
[39] = Acute toxicity in BALB/c mouse assessed as lethargy at >12 mg/kg, iv; assay type: organism-based; details: in vivo
Klebsiella pneumoniae = experiment: Antibacterial activity against Klebsiella pneumoniae CMCC(B) 46117 assessed as inhibition of bacterial growth incubated for 16 to 18 hrs by broth microdilution method; assay type: functional; details: time 16-18 hrs
Staphylococcus aureus [40] = experiment: Antibacterial activity against methicillin-resistant Staphylococcus aureus ATCC 43300 assessed as inhibition of bacterial growth incubated for 16 to 18 hrs by broth microdilution method; assay type: functional; details: time 16-18 hrs
[41] = Subacute toxicity in BALB/c mouse assessed as histopathological changes of kidney at 4 to 8 mg/kg, iv administered for 7 days and measured on day 14 by hematoxyin-eosin staining based analysis; assay type: organism-based; details: in vivo, 336 h, dose 4-8 mg/kg, time 14 day

Question: Which “fold change (FC)” value [1] does the source give for `CCCCCC[n+]1ccn(-c2ccc(C#Cc3ccc(-n4cc[n+](CCCCCC)c4)cc3)cc2)c1.[Br-].[Br-]` here?
Answer: 2

Question: And the Activity (Staphylococcus aureus [2])?
Answer: Active

Question: And the Activity [3]?
Answer: Non-Toxic

Question: And the half-life [4]?
Answer: 51.4 min

Question: And the AUC(0-inf) [5]?
Answer: 5120 ng·h/mL

Question: What about the “inhibition (INH)” value (Staphylococcus aureus [6]) of the same molecule?
Answer: 100%

Question: What about the Activity [7] of the same molecule?
Answer: Non-Toxic

Question: And the Activity [8]?
Answer: Non-Toxic

Question: And the Activity [9]?
Answer: Non-Toxic

Question: What about the Activity (Staphylococcus aureus [10]) of the same molecule?
Answer: Active

Question: What about the Cmax [11] of the same molecule?
Answer: 12000 ng/mL

Question: What about the Activity [12] of the same molecule?
Answer: Non-Toxic

Question: And the Activity [13]?
Answer: Non-Toxic

Question: What about the MRT inf [14] of the same molecule?
Answer: 32.5 min

Question: And the inhibition (Staphylococcus aureus [15])?
Answer: Active

Question: And the Activity [16]?
Answer: Non-Toxic

Question: And the selectivity ratio [17]?
Answer: 1600

Question: And the MIC (Staphylococcus aureus [18])?
Answer: 64 µg/mL

Question: What about the Activity (Staphylococcus aureus [19]) of the same molecule?
Answer: Active

Question: What about the clearance [20] of the same molecule?
Answer: 27.2 mL/min/kg

Question: And the Activity (Staphylococcus aureus [21])?
Answer: Active

Question: And the Activity [22]?
Answer: Non-Toxic

Question: And the Activity [23]?
Answer: Non-Toxic

Question: What about the MIC (Staphylococcus aureus [24]) of the same molecule?
Answer: 0.25 µg/mL

Question: What about the MIC (Pseudomonas aeruginosa) of the same molecule?
Answer: 32 µg/mL

Question: What about the CC50 at 48 h [25] of the same molecule?
Answer: 224 µg/mL

Question: And the MIC (Escherichia coli [26])?
Answer: 1 µg/mL

Question: What about the Activity (Escherichia coli [27]) of the same molecule?
Answer: Active

Question: And the Tmax [28]?
Answer: 4.98 min

Question: And the Activity (Staphylococcus aureus [29])?
Answer: Dde

Question: And the MIC (Acinetobacter baumannii)?
Answer: 32 µg/mL

Question: What about the MIC (Escherichia coli [30]) of the same molecule?
Answer: 32 µg/mL

Question: And the Activity (Staphylococcus aureus [31])?
Answer: Active

Question: What about the Activity [32] of the same molecule?
Answer: Non-Toxic

Question: What about the Activity (Staphylococcus aureus [33]) of the same molecule?
Answer: Active

Question: And the Activity (Staphylococcus aureus [34])?
Answer: Active

Question: What about the MIC (Enterococcus faecalis) of the same molecule?
Answer: 8 µg/mL

Question: What about the Activity (Staphylococcus aureus [35]) of the same molecule?
Answer: Active

Question: What about the “inhibition (INH)” value (Staphylococcus aureus [36]) of the same molecule?
Answer: 69%

Question: What about the HC5 (Erythrocyte) of the same molecule?
Answer: 800 µg/mL

Question: And the Activity (Staphylococcus aureus [37])?
Answer: Active

Question: What about the “fold change (FC)” value [38] of the same molecule?
Answer: 20

Question: What about the Activity [39] of the same molecule?
Answer: Non-Toxic

Question: What about the MIC (Klebsiella pneumoniae) of the same molecule?
Answer: 32 µg/mL

Question: What about the MIC (Staphylococcus aureus [40]) of the same molecule?
Answer: 0.5 µg/mL

Question: And the Activity [41]?
Answer: Non-Toxic

From ChEMBL document CHEMBL5120961, “N-Arylimidazoliums as Highly Selective Biomimetic Antimicrobial Agents” (J Med Chem, 2022)
